Laboratory results as given in the supplement of paper PMC5412046.
Counter-ions that a name gives are not always drawn.

Experiments:
SB.msgc-1 [1] = assay: viability at highest tested concentration (MAXR) relative to DMSO; higher = less cytotoxic; conditions: SB.msgc-1 (sporadic gastric cancer)
In short: (§1)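 In 1536-well plates, each well held 500 gastric cancer cells of hereditary or sporadic patient origin in 5 μL medium. Compound in DMSO (23 nL, pintool) was added at 11 concentrations spaced threefold apart, and the top concentration was noted per compound. Luminescence was read on a ViewLux after a 48 h incubation and a 30 min room-temperature treatment with CellTiter-Glo. Figures give viability normalised to DMSO, either at the highest concentration or as trapezoidal area under the curve.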

SB.mhdgc-1 [2] = assay: as above; conditions: SB.mhdgc-1 (hereditary c.1380delA CDH1 gastric cancer)
In short: as §1

SB.msgc-1 [3] = assay: area under the dose-response curve of % viability (trapezoidal, 11 doses) (% viability x log10 concentration); higher = less cytotoxic; conditions: SB.msgc-1 (sporadic gastric cancer)
In short: as §1

SB.mhdgc-1 [4] = assay: as above; conditions: SB.mhdgc-1 (hereditary c.1380delA CDH1 gastric cancer)
In short: as §1

| Structure (SMILES) | viability (SB.msgc-1 [1]) [%] | viability (SB.mhdgc-1 [2]) [%] | area under the dose-response curve (SB.msgc-1 [3]) | area under the dose-response curve (SB.mhdgc-1 [4]) |
| --- | --- | --- | --- | --- |
| CCN(CC)CCN1C(=O)\C(=N/C2=CC=CC=C12)CC3=CC=C(OC)C=C3 [Caroverine hydrochloride] (top concentration 46.0829 µM) | 116 | 119 | 595 | 541 |
| Cc1cnc(Nc2ccc(N3CCN(C)CC3)cc2)nc1Nc1cccc([S+](=O)([O-])NC(C)(C)C)c1 (top concentration 46.0829 µM) | 8.47 | 3.82 | 443 | 504 |
| CCc1c(O)cc(O)c(C(=O)c2ccc(OCCN3CCOCC3)c(OC)c2)c1CC(=O)N(CCOC)CCOC [KW-2478] (top concentration 46.0829 µM) | 48 | 46.4 | 397 | 405 |
| CCN1CCCC1CNC(=O)c1cc([S+](N)(=O)[O-])ccc1OC (centres undefined) [Levosulpiride] (top concentration 46.0829 µM) | 116 | 140 | 538 | 581 |
| Cc1ncc(-c2ccnc(Nc3ccc([S+](C)(=O)[O-])cc3)n2)n1C(C)C [AZD-5438] (top concentration 46.0829 µM) | 39.5 | 48.2 | 436 | 496 |
| CCC[C@H](NC(=O)/C(C#N)=C/c1cccc(Br)n1)c1ccccc1 [Degrasyn] (top concentration 46.0829 µM) | 1.04 | 7.59 | 404 | 464 |
| Cc1ccc(O)c(C(CCN(C(C)C)C(C)C)c2ccccc2)c1.Cl (centres undefined) [Tolterodine tartrate] (top concentration 46.0829 µM) | 109 | 83.9 | 571 | 501 |
| CCOC(=O)[C@H](CCc1ccccc1)N[C@@H](C)C(=O)N1CCC[C@H]1C(=O)O [Enalapril maleate] (top concentration 46.0829 µM) | 82.3 | 73 | 577 | 504 |
| N[C@@H](Cc1cc(I)c(Oc2cc(I)c(O)c(I)c2)c(I)c1)C(=O)O [L-Thyroxine] (top concentration 46.0829 µM) | 98.7 | 68.1 | 555 | 467 |
| N[S+]([O-])(=O)C1=CC=C(NC/2=C/C(=O)C3=CC=CC=C3C2=O)C=C1 (top concentration 46.0829 µM) | 34.2 | 0.53 | 500 | 301 |
| Cc1c(C(=O)Nc2ccc(N3C[C@@H](C)O[C@@H](C)C3)nc2)cccc1-c1ccc(OC(F)(F)F)cc1 [NVP-LDE-225] (top concentration 46.0829 µM) | 40.3 | 43.9 | 488 | 479 |
| O=c1[nH]c(=O)n(C2CCCO2)cc1F (centres undefined) [Tegafur] (top concentration 92.1659 µM) | 87 | 63.8 | 554 | 555 |
| CC(C)(C)c1[nH]cnc1/C=c1\[nH]c(=O)/c(=C/c2ccccc2)[nH]c1=O [Plinabulin] (top concentration 92.1659 µM) | 2.47 | 3.33 | 227 | 327 |
| CN(C)NC(=O)CCC(=O)O [Daminozide] (top concentration 46.0829 µM) | 88 | 100 | 498 | 518 |
| CC(C)CC(=O)Nc1n[nH]c2c1CN(C(=O)C1CCN(C)CC1)C2(C)C (top concentration 46.0829 µM) | 43.2 | 73.2 | 390 | 329 |
| COc1cc(F)c(C(C)C)cc1-c1ccc(C(F)(F)F)cc1CN1C(=O)O[C@H](c2cc(C(F)(F)F)cc(C(F)(F)F)c2)[C@@H]1C [Anacetrapib] (top concentration 46.0829 µM) | 77.9 | 54.6 | 478 | 470 |
| Cc1ccc(-c2cc(C(F)(F)F)nn2-c2ccc([S+](N)(=O)[O-])cc2)cc1 [Celecoxib] (top concentration 46.0829 µM) | 70.4 | 102 | 505 | 585 |
| COc1ccc(COc2cc3oc(=O)c4cc(C(C)O)ccc4c3cc2OC)cc1 (centres undefined) (top concentration 46.0829 µM) | 36.2 | 39.9 | 507 | 486 |
| CC(=O)OC[C@@H]1O[C@H]([C@H](OC(C)=O)[C@@H]1OC(C)=O)N2\C=C/C(=O)NC2=O [Uridine triacetate] (top concentration 46.0829 µM) | 112 | 104 | 524 | 572 |
| CCCCN1CCC(CNC(=O)c2c3n(c4ccccc24)CCCO3)CC1 [Piboserod hydrochloride] (top concentration 46.0829 µM) | 20.7 | 20.6 | 424 | 400 |
| CC1=CC2=C(O1)C(=C3OC(=O)\C=C(C)/C3=C2)C [Trioxsalen] (top concentration 46.0829 µM) | 60.7 | 36 | 542 | 460 |
| c1ccc2c(CCNc3ccc(Nc4ccncc4)cc3)c[nH]c2c1 [Serdemetan] (top concentration 46.0829 µM) | 45.2 | 7.88 | 486 | 397 |
| CCOC(CN1C(=O)[C@](CC(=O)Nc2ccc(C)cc2)(NC(=O)Nc2ccc(C)cc2)c2ccccc21)OCC [AG-041R] (top concentration 46.0829 µM) | 31.1 | 34.8 | 477 | 488 |

| Structure (SMILES) | viability (SB.msgc-1 [1]) [%] | viability (SB.mhdgc-1 [2]) [%] | area under the dose-response curve (SB.msgc-1 [3]) | area under the dose-response curve (SB.mhdgc-1 [4]) |
| --- | --- | --- | --- | --- |
| CN1[C@@H]2CC[C@H]1CC(OC(=O)c1c[nH]c3ccccc13)C2 (some centres undefined) [Tropisetron] (top concentration 46.0829 µM) | 90.5 | 75.4 | 536 | 559 |
| CN1C[C@H]2c3ccccc3Oc3ccc(Cl)cc3[C@@H]2C1 [Asenapine maleate] (top concentration 46.0829 µM) | 86 | 73.7 | 478 | 456 |
| [O-]C(=O)C1=C(C(=C(Cl)C(=C1Cl)Cl)Cl)C/2=C/3\C=C(I)/C(=O)/C(=C3OC4=C2C=C(I)C(=C4I)[O-])I [Rose Bengal disodium] (top concentration 46.0829 µM) | 61 | 48.9 | 492 | 471 |
| NC[C@H]1O[C@H](O[C@@H]2[C@H](O)[C@@H](O[C@H]3O[C@H](CO)[C@@H](O)[C@H](N)[C@H]3O)[C@H](N)C[C@@H]2N)[C@H](O)[C@@H](O)[C@@H]1O [Kanamycin] (top concentration 46.0829 µM) | 98.1 | 107 | 513 | 562 |
| CC(=O)NC(CS)C(=O)O (centres undefined) [Acetylcysteine] (top concentration 46.0829 µM) | 108 | 91.5 | 493 | 428 |
| COc1cc([C@H]2Oc3cc([C@H]4Oc5cc(O)cc(O)c5C(=O)[C@@H]4O)ccc3O[C@@H]2CO)ccc1O [Silybin] (top concentration 46.0829 µM) | 31.3 | 65.9 | 511 | 511 |
| CN(C(=O)c1ccc(F)cc1C(F)(F)F)C1CCN(c2nnc(-c3ccnn3C)c3ccccc23)CC1 (top concentration 46.0829 µM) | 59.5 | 51.3 | 399 | 368 |
| COC\1=C(/OC)C(=O)\C(=C(C)/C1=O)CCCCCCCCCCO [Idebenone] (top concentration 46.0829 µM) | 101 | 103 | 532 | 566 |
| COC1=CC=C(C=N1)C/2=C/C3=C(C)N=C(N)N=C3N(C4CCC(CC4)OCCO)C2=O (centres undefined) (top concentration 46.0829 µM) | 33.6 | 28.8 | 311 | 238 |
| CC(C)N[C@@H]1CCn2c(=O)[nH]c3cccc(c32)[C@H]1O [Zilpaterol] (top concentration 46.0829 µM) | 19.2 | 11.1 | 446 | 402 |
| Cc1oncc1C(=O)Nc1ccc(C(F)(F)F)cc1 [Leflunomide] (top concentration 46.0829 µM) | 79.3 | 87.4 | 485 | 495 |
| CN(C)C(=O)c1ccc([S+](=O)([O-])c2ccc(NC(=O)[C@@](C)(O)C(F)(F)F)c(Cl)c2)cc1 [AZD-7545] (top concentration 46.0829 µM) | 68.5 | 57.4 | 515 | 460 |
| CCOC(=O)N1c2ccc(C(F)(F)F)cc2[C@@H](N(Cc2cc(C(F)(F)F)cc(C(F)(F)F)c2)C(=O)OC)C[C@H]1CC [Torcetrapib] (top concentration 46.0829 µM) | 60.6 | 57.1 | 503 | 538 |
| C[C@]1(O)CC(C1)C2=NC(=C3[N]2C=CN=C3N)C4=CC5=C(C=C4)C=CC(=N5)C6=CC=CC=C6 (centres undefined) [Linsitinib] (top concentration 46.0829 µM) | 35.1 | 31.5 | 448 | 475 |
| CN1CCN(CC1)C/2=N/C3=CC=CC=C3NC4=C2C=C(C)S4 [Olanzapine] (top concentration 46.0829 µM) | 128 | 124 | 545 | 496 |
| CCC(C)N1\N=C/N(C1=O)C2=CC=C(C=C2)N3CCN(CC3)C4=CC=C(OC[C@H]5CO[C@@](C[N]6C=NC=N6)(O5)C7=CC=C(Cl)C=C7Cl)C=C4 (some centres undefined) [Itraconazole] (top concentration 46.0829 µM) | 57.9 | 62.2 | 464 | 472 |
| CC(C)OC1=CC=C2C(=C1)O\C=C(/C2=O)C3=CC=CC=C3 [Ipriflavone] (top concentration 46.0829 µM) | 54 | 60.8 | 487 | 487 |
| Cc1[nH]c(/C=C2\C(=O)Nc3ccccc32)c(C)c1CCC(=O)O [Orantinib] (top concentration 46.0829 µM) | 38.1 | 49.1 | 472 | 388 |
| COc1cc2c(cc1OC)[C@@H]1Cc3ccc(OC)c(OC)c3CN1CC2 [Rotundine] (top concentration 46.0829 µM) | 72.6 | 49.6 | 551 | 448 |
| N[C@@H](Cc1ccc(N(CCCl)CCCl)cc1)C(=O)O [Melphalan] (top concentration 46.0829 µM) | 63.9 | 21.8 | 460 | 350 |
| C[S+](=O)([O-])Nc1ccc([N+](=O)[O-])cc1Oc1ccccc1 [Nimesulide] (top concentration 46.0829 µM) | 65.7 | 87.3 | 558 | 460 |
| NNc1nncc2ccccc12 [Hydralazine hydrochloride] (top concentration 46.0829 µM) | 96.7 | 78.9 | 543 | 465 |
| COc1cc(OC)c(NC(=O)Nc2cc(C)on2)cc1Cl (top concentration 46.0829 µM) | 62.9 | 83.2 | 440 | 509 |
